Values of other authors as cited in PubChem BioAssay AID1259410 (Chemical Carcinogenesis Research Information System (CCRIS), 2018).

System: rodent tumor promotion studies, tumor incidence
Experiment: CCRIS tumor promotion studies
[1] = Carcinogen: UV IRRADIATION, Doses [Carcinogen]: 0.53 J/CM2 INCREASED BY 20% EVERY 2 WK TO 1.60 J/CM2 AND MAINTAINED AT 1.60 J/CM2 UNTIL DEATH, ADMINISTERED 5 D/WK FOR 1, Doses [Promoter]: 0, 15 UG/G BEGINNING 2 WK POST FIRST CARCINOGEN DOSE ADMINISTERED 2 HR PRIOR TO EACH CARCINOGEN DOSE (STUDY DURATION: 30, Route [Carcinogen]: DERMAL, Route [Promoter]: INTRAPERITONEAL, Species: MOUSE, Strain/Sex: SKH/HRL/FEMALE
[2] = Carcinogen: 7,12-DIMETHYLBENZ(A)ANTHRACENE, Doses [Carcinogen]: TOP, Route [Carcinogen]: DERMAL, Route [Promoter]: DERMAL, Species: MOUSE, Strain/Sex: FEMALE

With `CN(C)CCCN1c2ccccc2Sc2ccc(Cl)cc21` as the compound, how does the outcome [1] read?
Its outcome is “skin: tumor”.

Which outcome (Carcinogen: N-nitrosodiethylamine (DEN) (55-18-5), N-methylnitrosourea (MNU) (684-93-5), 1,2-dimethylhydrazine (DMH) (540-73-8), N-b, Carcinogen: N-nitrosodiethylamine (DEN) (55-18-5), N-methylnitrosourea (MNU) (684-93-5), 1,2-dimethylhydrazine (DMH) (540-73-8), N-b, Doses [Carcinogen]: DEN (100 mg/kg at commencement), MNU (4 injections of 20 mg/kg in first 2 wks), DMH (4 injections of 40 mg/kg in second, Doses [Carcinogen]: DEN (100 mg/kg at commencement), MNU (4 injections of 20 mg/kg in first 2 wks), DMH (4 injections of 40 mg/kg in second, Doses [Promoter]: 0, 10, 300, 3000, 6000 ppm in diet immediately after completion of initiator treatment for 25 wk, Doses [Promoter]: 0, 10, 300, 3000, 6000 ppm in diet immediately after completion of initiator treatment for 25 wk, Route [Carcinogen]: Intraperitoneal (DEN and MNU), subcutaneous (DMH), oral (BBN and DHPN), Route [Carcinogen]: Intraperitoneal (DEN and MNU), subcutaneous (DMH), oral (BBN and DHPN), Route [Promoter]: Oral, Species: Rat, Strain/Sex: BrlHan:WIST Jcl (GALAS)/Male (9-12/group)) does the source give for `O=C([O-])[C@H](O)[C@@H](O)[C@H](O)[C@H](O)CO.O=C([O-])[C@H](O)[C@@H](O)[C@H](O)[C@H](O)CO.[Cu+2]` here?
The outcome was “liver: gst-p-positive lesions (p<0.05 at 300 and 3000 ppm and p<0.01 at 6000 ppm”.

With `O=NN1CCC[C@H]1c1cccnc1` as the compound, how does the outcome (Carcinogen: Diethylnitrosamine, 55-18-5, Doses [Carcinogen]: 40 mg/l for 4 consecutive d/wk for 180 days, study duration 180 d, Doses [Promoter]: 30 mg/l, 3 d /wk for 180 d, study duration 180 d, Doses [Promoter]: 30 mg/l, 3 d /wk for 180 d, study duration 180 d, Route [Carcinogen]: Oral (drinking water), Route [Promoter]: Oral (drinking water), Species: Mouse, Strain/Sex: CF1/Female (16, 46/Group)) read?
The outcome was “stomach: squamous cell carcinoma (33% vs 22%); adenocarcinoma (17% vs 15%); both”.

Which outcome (Carcinogen: DIETHYLNITROSAMINE, 55-18-5, Doses [Carcinogen]: 200 MG/KG BW IN 0.9% SALINE ONCE, Doses [Promoter]: 0, 0.1 MMOL/KG BW IN POLYETHYLENE GLYCOL FOR 5 D BEGINNING 1 WK POST CARCINOGEN DOSE, 70% HEPATECTOMY PERFORMED 3 D AFTE, Route [Carcinogen]: INTRAPERITONEAL, Route [Promoter]: GAVAGE, Species: RAT, Strain/Sex: SPRAGUE-DAWLEY/MALE) does the source give for `CC(=O)Nc1ccc2c(c1)C(=O)c1ccccc1-2` here?
Its outcome is “liver: hepatocellular carcinoma”.

Which outcome [2] does the source give for `Cc1ccc(C)c(O)c1` here?
The outcome was “integumentary system (skin)”.

With `CCCCCCCCCCCCCCCCCC` as the compound, how does the outcome (Carcinogen: 7,12-DIMETHYLBENZ(A)ANTHRACENE, Doses [Carcinogen]: TOP, Route [Carcinogen]: DERMAL, Route [Promoter]: DERMAL, Species: MOUSE, Strain/Sex: MALE,FEMALE) read?
The outcome was “integumentary system (skin)”.

For `C=CC(N)=O`, which outcome (Carcinogen: METHYLNITROSOUREA [684-93-5], Doses [Carcinogen]: 50 MG/KG BW ONCE, Doses [Promoter]: 0, 20, 40 PPM IN DRINKING WATER AFTER CARCINOGEN ADMINISTRATION (STUDY DURATION: 30 WK), Doses [Promoter]: 0, 20, 40 PPM IN DRINKING WATER AFTER CARCINOGEN ADMINISTRATION (STUDY DURATION: 30 WK), Route [Carcinogen]: IP INJECTION, Route [Promoter]: DRINKING WATER, Species: RAT, Strain/Sex: SPRAGUE-DAWLEY/FEMALE (20/GROUP)) is on record?
The outcome was “mammary gland: adenocarcinoma (significant increase in tumor incidence at 40 ppm”.

Which outcome (Carcinogen: 2-(ACETYLAMINO)FLUORINE, Doses [Carcinogen]: IG, Doses [Promoter]: IN DIET, Route [Carcinogen]: GAVAGE, Route [Promoter]: ORAL, Species: RAT, Strain/Sex: MALE,FEMALE) does the source give for `Cc1cc(=O)[nH]c(=S)[nH]1` here?
Its outcome is “thyroid gland”.

Which outcome (Carcinogen: N-NITROSODIETHYLAMINE, 55-18-5, Doses [Carcinogen]: 75 MG IN STERILE SALINE ONCE, Doses [Promoter]: 0, 444 PPM IN DIET BEGINNING 2 WK POST CARCINOGEN DOSE AND CONTINUING FOR DURATION OF STUDY (STUDY DURATION: 78 WK), Route [Carcinogen]: INTRAPERITONEAL, Route [Promoter]: ORAL, Species: RAT, Strain/Sex: F344/MALE) does the source give for `CCC(C(=O)NC(N)=O)c1ccccc1` (configuration not stated) here?
Its outcome is “liver: hepatocellular adenoma”.

Which outcome (Carcinogen: 3-METHYLCHOLANTHRENE, 56-49-5, Doses [Carcinogen]: 3 MG IN BEESWAX PELLET, Doses [Promoter]: 0, 3 MG IN BEESWAX PELLET (STUDY DURATION: 5 MO), Route [Carcinogen]: IMPLANT, Route [Promoter]: IMPLANT, Species: HAMSTER) does the source give for `C[C@H](CCC(=O)O)[C@H]1CC[C@H]2[C@@H]3[C@H](O)C[C@@H]4C[C@H](O)CC[C@]4(C)[C@H]3CC[C@]12C` here?
Its outcome is “gallbladder: tumor”.

And the outcome (Doses [Carcinogen]: IR, Route [Carcinogen]: RECTAL, Route [Promoter]: RECTAL, Species: RAT, Strain/Sex: FEMALE)?
The outcome was “colon”.

For `S=c1nc[nH]c2nc[nH]c12`, which outcome [1] is on record?
The outcome was “skin: tumor”.

With `CC(C)(c1cc(Br)c(O)c(Br)c1)c1cc(Br)c(O)c(Br)c1` as the compound, how does the outcome (Carcinogen: N-bis(2-hydroxypropyl)nitrosamine, 53609-64-6, Doses [Carcinogen]: 0.08 and 0.2% in drinking water for 4 wks at 7-10 wks of age, study duration to 39 wk of age, Doses [Promoter]: In utero (0.01, 0.1, or 1% in diet of dams) and then in drinking water of weaned offspring for 2 wk, Route [Carcinogen]: Oral, Route [Promoter]: In utero and in drinking water, Species: Rat, Strain/Sex: F344/Male (12-15/group)) read?
The outcome was “none found”.

With `O=C(OOC(=O)c1ccccc1)c1ccccc1` as the compound, how does the outcome [2] read?
The outcome was “integumentary system (skin)”.

And the outcome (Carcinogen: 7,12-DIMETHYLBENZ[A]ANTHRACENE, 57-97-6, Doses [Carcinogen]: 0.1% IN MINERAL OIL APPLIED TO BUCCAL POUCHES 3/WK FOR 10 WK, Doses [Promoter]: 0, 40% IN ACETONE APPLIED TO BUCCAL POUCHES 3/WK FOR 6 WK BEGINNING 6 WK POST CARCINOGEN TREATMENT (STUDY DURATION: 25 W, Route [Carcinogen]: DERMAL, Route [Promoter]: DERMAL, Species: HAMSTER, Strain/Sex: SYRIAN/MALE, FEMALE)?
Its outcome is “buccal pouch: tumor, carcinoma”.

What about the outcome (Carcinogen: 7,12-DIMETHYLBENZ[A]ANTHRACENE, 57-97-6, Doses [Carcinogen]: 20 NMOL IN ACETONE ONCE, Doses [Promoter]: 0, 0.2 ML OF 100 MG/ML SOLUTION IN ACETONE 2/WK FOR 51 WK (STUDY DURATION: 52 WK), Route [Carcinogen]: DERMAL, Route [Promoter]: DERMAL, Species: MOUSE, Strain/Sex: SENCAR/FEMALE) of the same compound?
The outcome was “skin: squamous cell carcinoma”.

And the outcome (Carcinogen: N-METHYL-N'-NITRO-N-NITROSOGUANIDINE, 70-25-7, Doses [Carcinogen]: 4 UMOL IN 200 µL ACETONE ONCE, Doses [Promoter]: 0, 10, 20 MG IN 200 µL ACETONE 2/WK FOR 52 WK BEGINNING 2 WK POST CARCINOGEN DOSE (STUDY DURATION: 52 WK), Doses [Promoter]: 0, 10, 20 MG IN 200 µL ACETONE 2/WK FOR 52 WK BEGINNING 2 WK POST CARCINOGEN DOSE (STUDY DURATION: 52 WK), Route [Carcinogen]: DERMAL, Route [Promoter]: DERMAL, Species: MOUSE, Strain/Sex: C3H/FEMALE)?
The outcome was “skin: tumor”.

Which outcome [2] does the source give for `O=C(OO)c1cccc(Cl)c1` here?
The outcome was “integumentary system (skin)”.

With `CN(C)CCOc1ccc(/C(=C(/CCCl)c2ccccc2)c2ccccc2)cc1` as the compound, how does the outcome (Carcinogen: DIETHYLNITROSAMINE, 55-18-5, Doses [Carcinogen]: 2.5 UG/G BW IN SALINE ONCE, Doses [Promoter]: 0, 0.5-1 MG IN PELLET IMPLANTED 1/MONTH FOR 30 WK BEGINNING 30 D POST CARCINOGEN TREATMENT (STUDY DURATION: 240 D), Route [Carcinogen]: INTRAPERITIONEAL, Route [Promoter]: SUBCUTANEOUS, Species: MOUSE, Strain/Sex: B6C3F1/FEMALE) read?
Its outcome is “liver: tumor”.

With `CC(C)CCC[C@@H](C)[C@H]1CC[C@H]2[C@@H]3CC=C4C[C@@H](O)CC[C@]4(C)[C@H]3CC[C@]12C` as the compound, how does the outcome (Carcinogen: N-NITROSOBIS(2-OXOPROPYL)AMINE, 60599-38-4, Doses [Carcinogen]: 70 MG/KG ONCE, Doses [Promoter]: 0, 0.5% IN DIET BEGINNING 2 WK POST CARCINOGEN DOSE AND CONTINUING FOR 16 WK (STUDY DURATION: 18 WK), Route [Carcinogen]: SUBCUTANEOUS, Route [Promoter]: ORAL, Species: HAMSTER, Strain/Sex: SYRIAN/FEMALE) read?
The outcome was “pancreas: adenocarcinoma”.

Which outcome (Carcinogen: AZOXYMETHANE, Doses [Carcinogen]: 2.5 MG/KG IN DISTILLED WATER 1/WK FOR 10 WK, Doses [Promoter]: 100 MG/KG IN 0.9%, NACL, 3/WK FOR 24 WK ADMINISTERED SIMULTANEOUSLY AND POST CARCINOGEN DOSES (STUDY DURATION: 52 WK), Route [Carcinogen]: SUBCUTANEOUS, Route [Promoter]: INTRAGASTRIC, Species: RAT, Strain/Sex: F344/MALE) does the source give for `NN=C(N)N` here?
Its outcome is “colon: tumor”.

What about the outcome (Carcinogen: N-METHYL-N'-NITRO-N-NITROSOGUANIDINE, 70-25-7, Doses [Carcinogen]: 25 UG/ML IN DRINKING WATER FOR 25 WK, Doses [Promoter]: 0, 25 MG/KG BW 1/2 D FOR 25 WK BEGINNING POST CARCINOGEN TREATMENT (STUDY DURATION: 52 WK), Route [Carcinogen]: ORAL, Route [Promoter]: SUBCUTANEOUS, Species: RAT, Strain/Sex: WISTAR/MALE) of the same compound?
The outcome was “stomach: adenocarcinoma”.
